Source: article PMC12484785, “Structure and activation mechanism of human sweet taste receptor” (Cell Research, 2025)

Tests used:
TAS1R2 [1] = target: T1, TAS1R2 (Homo sapiens, UniProt Q8TE23); test: cell-based calcium imaging of the expressed human/human receptor
T1 construct: TAS1R2/TAS1R3 heterodimer; with TAS1R3 (human)
T1 sequence (Q8TE23 20-839): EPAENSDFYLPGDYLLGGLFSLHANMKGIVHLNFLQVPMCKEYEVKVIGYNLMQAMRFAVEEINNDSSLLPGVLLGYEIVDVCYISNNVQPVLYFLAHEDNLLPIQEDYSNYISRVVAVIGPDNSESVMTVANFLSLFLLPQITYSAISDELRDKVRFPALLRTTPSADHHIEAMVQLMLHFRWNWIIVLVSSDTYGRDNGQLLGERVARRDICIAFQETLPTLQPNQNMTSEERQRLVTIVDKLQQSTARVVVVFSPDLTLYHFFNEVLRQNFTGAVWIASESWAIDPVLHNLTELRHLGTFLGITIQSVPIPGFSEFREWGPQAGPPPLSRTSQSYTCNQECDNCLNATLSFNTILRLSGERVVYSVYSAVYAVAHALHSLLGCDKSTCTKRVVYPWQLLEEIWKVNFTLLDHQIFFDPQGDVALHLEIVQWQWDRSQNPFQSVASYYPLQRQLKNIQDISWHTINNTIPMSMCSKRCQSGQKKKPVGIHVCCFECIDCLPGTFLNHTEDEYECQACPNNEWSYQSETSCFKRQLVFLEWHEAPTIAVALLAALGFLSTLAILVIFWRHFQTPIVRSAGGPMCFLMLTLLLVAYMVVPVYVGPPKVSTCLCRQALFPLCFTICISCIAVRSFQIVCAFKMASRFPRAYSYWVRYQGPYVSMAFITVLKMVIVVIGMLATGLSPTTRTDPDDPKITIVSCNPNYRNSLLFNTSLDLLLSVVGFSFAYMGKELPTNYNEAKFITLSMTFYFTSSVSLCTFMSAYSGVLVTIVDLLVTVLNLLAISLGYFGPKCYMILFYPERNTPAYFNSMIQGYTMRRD
T1 sequence (Q7RTX0 21-852 partner): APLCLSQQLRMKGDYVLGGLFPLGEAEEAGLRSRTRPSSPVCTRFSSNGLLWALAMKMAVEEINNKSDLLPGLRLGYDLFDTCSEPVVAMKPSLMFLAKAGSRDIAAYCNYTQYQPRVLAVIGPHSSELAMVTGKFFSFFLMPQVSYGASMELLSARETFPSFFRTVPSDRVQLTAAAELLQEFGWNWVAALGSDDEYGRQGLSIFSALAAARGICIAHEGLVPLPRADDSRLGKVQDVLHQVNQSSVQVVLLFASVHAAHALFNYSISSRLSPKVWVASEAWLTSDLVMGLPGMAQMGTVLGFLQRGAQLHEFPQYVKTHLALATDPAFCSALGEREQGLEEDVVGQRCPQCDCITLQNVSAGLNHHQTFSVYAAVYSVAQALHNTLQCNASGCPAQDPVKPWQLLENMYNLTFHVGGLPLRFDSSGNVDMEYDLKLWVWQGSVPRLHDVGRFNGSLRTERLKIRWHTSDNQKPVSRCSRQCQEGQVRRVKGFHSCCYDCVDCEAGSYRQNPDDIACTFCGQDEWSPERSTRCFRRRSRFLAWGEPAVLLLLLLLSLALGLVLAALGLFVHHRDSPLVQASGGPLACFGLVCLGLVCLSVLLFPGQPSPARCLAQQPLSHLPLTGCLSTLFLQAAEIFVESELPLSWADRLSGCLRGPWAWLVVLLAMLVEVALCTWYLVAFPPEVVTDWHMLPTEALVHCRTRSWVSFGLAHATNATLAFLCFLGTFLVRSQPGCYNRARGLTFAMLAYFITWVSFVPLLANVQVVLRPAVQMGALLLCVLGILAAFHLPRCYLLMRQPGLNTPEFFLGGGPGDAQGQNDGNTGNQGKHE

TAS1R2 [2] = target: T2, TAS1R2 (Homo sapiens, UniProt Q8TE23); test: cryo-EM structures of human/human and human/mouse receptor with advantame; EC50 from cell-based calcium imaging (human/human)
T2 construct: VFT domain of TAS1R2 in the TAS1R2/TAS1R3 heterodimer; with TAS1R3 (human; also mouse TAS1R3)
T2 sequence (Q8TE23 22-839): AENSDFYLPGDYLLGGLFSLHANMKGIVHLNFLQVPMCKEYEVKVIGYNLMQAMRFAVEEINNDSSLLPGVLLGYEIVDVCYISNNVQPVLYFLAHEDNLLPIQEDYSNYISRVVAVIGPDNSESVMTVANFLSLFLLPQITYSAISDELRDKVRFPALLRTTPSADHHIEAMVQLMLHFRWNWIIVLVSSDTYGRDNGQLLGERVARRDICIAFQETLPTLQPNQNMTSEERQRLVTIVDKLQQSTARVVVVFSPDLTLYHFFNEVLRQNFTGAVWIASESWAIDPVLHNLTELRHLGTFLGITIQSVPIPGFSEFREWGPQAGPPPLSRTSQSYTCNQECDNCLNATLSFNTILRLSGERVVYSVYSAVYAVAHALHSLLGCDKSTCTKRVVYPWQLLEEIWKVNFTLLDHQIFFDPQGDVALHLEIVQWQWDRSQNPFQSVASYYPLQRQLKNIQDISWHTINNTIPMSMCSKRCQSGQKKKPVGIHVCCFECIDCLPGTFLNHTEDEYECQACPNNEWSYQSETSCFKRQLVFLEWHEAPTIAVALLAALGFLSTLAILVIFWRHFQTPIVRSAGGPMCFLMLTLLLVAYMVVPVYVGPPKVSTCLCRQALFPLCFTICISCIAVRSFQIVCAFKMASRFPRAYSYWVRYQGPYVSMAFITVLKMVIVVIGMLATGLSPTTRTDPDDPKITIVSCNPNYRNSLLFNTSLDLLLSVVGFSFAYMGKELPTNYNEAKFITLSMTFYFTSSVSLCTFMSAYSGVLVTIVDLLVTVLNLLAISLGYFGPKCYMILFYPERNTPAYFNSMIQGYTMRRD
T2 sequence (Q7RTX0 21-852 partner): T1 sequence (Q7RTX0 21-852 partner)
Excerpt: cryo-EM structures of human/human and human/mouse receptor with advantame; EC50 from cell-based calcium imaging (human/human) on TAS1R2 | Advantame also yields well-defined ligand density in the TAS1R2 VFT pocket of both human/mouse and human/human receptors

SMILES	EC50 (TAS1R2 [1])	EC50 (TAS1R2 [2])
COC(=O)[C@H](Cc1ccccc1)NC(=O)[C@H](CC(=O)O)NCCC(C)(C)C [neotame]	2.7 µM	
COC(=O)[C@H](Cc1ccccc1)NC(=O)[C@H](CC(=O)O)NCCCc1ccc(OC)c(O)c1 [Adv, advantame]		0.9 µM
